Measurements: ChEMBL document CHEMBL3751820, “Synthesis and evaluation of bis-thiazole derivatives as new anticancer agents” (Eur J Med Chem, 2016)
Values after ≈ are worked out from the molar mass of the structure shown. Active and inactive are the calls of the source. The calls are words filed in the database; no cut-off is given here.

How the values were obtained:
[1] = Cytotoxicity against rat 5RP7 cells after 24 hrs by MTT assay; assay type: functional, cell-based; conditions: 5RP7, 24 h
A549 [2] = assay: Cytotoxicity against human A549 cells after 24 hrs by MTT assay; assay type: functional, cell-based; conditions: A549, 24 h
Acetylcholinesterase = Acetylcholinesterase (Electrophorus electricus, UniProt O42275); assay: Inhibition of electric eel AChE using acetylthiocholine iodide as substrate at by Ellman spectrophotometric method
C6 [3] = assay: Cytotoxicity against rat C6 cells after 24 hrs by MTT assay; assay type: functional, cell-based; conditions: C6, 24 h
[4] = Cytotoxicity against mouse NIH/3T3 cells after 24 hrs by MTT assay; assay type: cell-based; conditions: NIH3T3, 24 h
Cholinesterase [5] = molecular target: T1, Cholinesterase (Homo sapiens, UniProt P06276); assay: Inhibition of BuChE (unknown origin) using butyrylthiocholine iodide as substrate by Ellman spectrophotometric method
Cholinesterase [6] = molecular target: T1, Cholinesterase; assay: Inhibition of BuChE (unknown origin) using butyrylthiocholine iodide as substrate at 80 ug/ml by Ellman spectrophotometric method
C6 [7] = assay: Selectivity index, ratio of IC50 for mouse NIH/3T3 cells to IC50 for rat C6 cells; assay type: functional
A549 [8] = assay: Selectivity index, ratio of IC50 for mouse NIH/3T3 cells to IC50 for human A549 cells; assay type: functional
C6 [9] = assay: Antiproliferative activity against rat C6 cells assessed as inhibition of DNA synthesis after 24 hrs by BrdU incorporation based ELISA; assay type: functional, cell-based
A549 [10] = assay: Antiproliferative activity against human A549 cells assessed as inhibition of DNA synthesis after 24 hrs by BrdU incorporation based ELISA; assay type: functional, cell-based

T1 sequence (P06276 whole entry): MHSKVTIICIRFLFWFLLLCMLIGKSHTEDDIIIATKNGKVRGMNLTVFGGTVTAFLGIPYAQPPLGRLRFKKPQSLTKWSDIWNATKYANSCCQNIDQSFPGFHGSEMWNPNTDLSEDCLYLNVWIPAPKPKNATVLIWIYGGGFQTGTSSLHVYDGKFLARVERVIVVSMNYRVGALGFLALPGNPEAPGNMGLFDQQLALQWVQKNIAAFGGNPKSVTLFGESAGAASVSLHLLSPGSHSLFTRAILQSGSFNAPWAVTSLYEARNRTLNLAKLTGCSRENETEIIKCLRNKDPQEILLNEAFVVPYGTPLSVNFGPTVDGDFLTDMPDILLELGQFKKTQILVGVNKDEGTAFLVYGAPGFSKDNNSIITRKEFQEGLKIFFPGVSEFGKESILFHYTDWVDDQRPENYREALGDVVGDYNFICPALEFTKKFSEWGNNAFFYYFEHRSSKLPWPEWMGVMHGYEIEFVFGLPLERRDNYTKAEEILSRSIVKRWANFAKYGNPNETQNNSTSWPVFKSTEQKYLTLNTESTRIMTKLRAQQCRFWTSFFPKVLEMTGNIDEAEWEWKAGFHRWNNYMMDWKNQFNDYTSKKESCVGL
Sequence of Acetylcholinesterase (O42275 whole entry): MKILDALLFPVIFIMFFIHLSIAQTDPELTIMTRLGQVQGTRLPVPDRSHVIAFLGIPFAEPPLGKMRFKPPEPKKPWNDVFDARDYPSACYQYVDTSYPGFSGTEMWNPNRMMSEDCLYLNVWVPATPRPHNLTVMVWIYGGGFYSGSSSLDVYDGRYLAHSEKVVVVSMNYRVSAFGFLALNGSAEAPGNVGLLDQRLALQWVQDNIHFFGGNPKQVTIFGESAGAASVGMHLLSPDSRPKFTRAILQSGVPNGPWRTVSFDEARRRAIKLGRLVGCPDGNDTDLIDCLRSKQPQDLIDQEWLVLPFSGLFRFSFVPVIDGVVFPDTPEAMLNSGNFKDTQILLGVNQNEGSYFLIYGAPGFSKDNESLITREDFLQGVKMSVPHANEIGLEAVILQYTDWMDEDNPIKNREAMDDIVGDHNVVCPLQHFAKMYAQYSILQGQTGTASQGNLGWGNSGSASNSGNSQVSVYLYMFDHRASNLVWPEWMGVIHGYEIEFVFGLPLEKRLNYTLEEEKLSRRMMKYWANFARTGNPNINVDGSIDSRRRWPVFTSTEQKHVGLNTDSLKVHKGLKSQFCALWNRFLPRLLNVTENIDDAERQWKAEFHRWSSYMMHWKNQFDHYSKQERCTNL

| Compound | IC50 [1] | IC50 (A549 [2]) | IC50 (Acetylcholinesterase) | IC50 (C6 [3]) | IC50 [4] | IC50 (Cholinesterase [5]) | inhibition (Cholinesterase [6]) | Ratio IC50 (C6 [7]) | Ratio IC50 (A549 [8]) | Activity (C6 [9]) | Activity (A549 [10]) |
| --- | --- | --- | --- | --- | --- | --- | --- | --- | --- | --- | --- |
| COc1cc(-c2ccc(Nc3nc(-c4ccc(Cl)c(Cl)c4)cs3)c(OC)c2)ccc1Nc1nc(-c2ccc(Cl)c(Cl)c2)cs1 | 207 µg/mL (≈ 295 µM) | 147 µg/mL (≈ 209 µM) | 16.3 µM | 90 µg/mL (≈ 128 µM) | > 200 µg/mL | 110 µM | 53.5% | – | – | – | – |
| COc1cc(-c2ccc(Nc3nc(-c4ccc(Br)cc4)cs3)c(OC)c2)ccc1Nc1nc(-c2ccc(Br)cc2)cs1 | 68.3 µg/mL (≈ 94.8 µM) | 37.3 µg/mL (≈ 51.8 µM) | 15.9 µM | 11.3 µg/mL (≈ 15.7 µM) | 132 µg/mL (≈ 183 µM) | – | inactive | 11.65 | 3.53 | inactive | Active |
| COc1cc(-c2ccc(Nc3nc(-c4ccc(Cl)cc4Cl)cs3)c(OC)c2)ccc1Nc1nc(-c2ccc(Cl)cc2Cl)cs1 | > 500 µg/mL | 133 µg/mL (≈ 190 µM) | 8.37 µM | 80 µg/mL (≈ 114 µM) | > 200 µg/mL | 47.6 µM | 84.4% | – | – | – | – |
| COc1cc(-c2ccc(Nc3nc(-c4ccc(C)cc4)cs3)c(OC)c2)ccc1Nc1nc(-c2ccc(C)cc2)cs1 | > 500 µg/mL | 98.3 µg/mL (≈ 166 µM) | 45.8 µM | 21 µg/mL (≈ 35.5 µM) | 153 µg/mL (≈ 260 µM) | > 135 µM | 40.9% | – | – | inactive | Active |
| COc1cc(-c2ccc(Nc3nc(-c4ccc([N+](=O)[O-])cc4)cs3)c(OC)c2)ccc1Nc1nc(-c2ccc([N+](=O)[O-])cc2)cs1 | 5.83 µg/mL (≈ 8.93 µM) | 82.3 µg/mL (≈ 126 µM) | 15.9 µM | 33.3 µg/mL (≈ 51 µM) | 147 µg/mL (≈ 225 µM) | > 123 µM | 27.9% | – | – | inactive | Active |
| O=C1c2c(O)ccc(O)c2C(=O)c2c(NCCNCCO)ccc(NCCNCCO)c21 [MITOXANTRONE] | 0.73 µg/mL (≈ 1.64 µM) | 15.7 µg/mL (≈ 35.3 µM) | – | – | – | – | – | – | – | – | – |
| COc1cc(-c2ccc(NC(N)=S)c(OC)c2)ccc1NC(N)=S | 25.3 µg/mL (≈ 69.9 µM) | 178 µg/mL (≈ 492 µM) | 57.7 µM | 165 µg/mL (≈ 455 µM) | 195 µg/mL (≈ 538 µM) | > 221 µM | 26.7% | – | – | – | – |
| COc1ccc(-c2csc(Nc3ccc(-c4ccc(Nc5nc(-c6ccc(OC)cc6)cs5)c(OC)c4)cc3OC)n2)cc1 | 13.3 µg/mL (≈ 21.4 µM) | 58.3 µg/mL (≈ 93.6 µM) | 12.4 µM | 28.7 µg/mL (≈ 46.1 µM) | 98.3 µg/mL (≈ 158 µM) | 107 µM | 74.5% | – | – | inactive | Active |
| COc1ccc(OC)c(-c2csc(Nc3ccc(-c4ccc(Nc5nc(-c6cc(OC)ccc6OC)cs5)c(OC)c4)cc3OC)n2)c1 | 12.3 µg/mL (≈ 18.1 µM) | 125 µg/mL (≈ 183 µM) | 55.7 µM | 103 µg/mL (≈ 151 µM) | 170 µg/mL (≈ 249 µM) | 58 µM | 56.9% | – | – | – | – |
| COc1cc(-c2ccc(Nc3nc(-c4ccccc4)cs3)c(OC)c2)ccc1Nc1nc(-c2ccccc2)cs1 | 28 µg/mL (≈ 49.8 µM) | 103 µg/mL (≈ 184 µM) | 16.6 µM | 49.3 µg/mL (≈ 87.6 µM) | 112 µg/mL (≈ 198 µM) | – | inactive | – | – | – | – |
| COc1cc(-c2ccc(Nc3nc(-c4ccc(Cl)cc4)cs3)c(OC)c2)ccc1Nc1nc(-c2ccc(Cl)cc2)cs1 | 207 µg/mL (≈ 327 µM) | 105 µg/mL (≈ 166 µM) | 42.7 µM | 147 µg/mL (≈ 232 µM) | 112 µg/mL (≈ 177 µM) | > 127 µM | 39.1% | – | – | – | – |
| COc1cc(-c2ccc(Nc3nc(-c4cc(Cl)ccc4Cl)cs3)c(OC)c2)ccc1Nc1nc(-c2cc(Cl)ccc2Cl)cs1 | 54.3 µg/mL (≈ 77.6 µM) | 102 µg/mL (≈ 145 µM) | 97.1 µM | 38.3 µg/mL (≈ 54.7 µM) | 162 µg/mL (≈ 231 µM) | > 114 µM | 36.2% | – | – | – | – |
